Consider 2 molecules from US20050171063A1, “Use of phosphono derivatives as anti-malarials” (priority 2003, published 2005).

Some results are limits rather than exact numbers.

In test [1] the test system is 3D7 strain of P. falciparum. Briefly: Microscopy of Giemsa-stained slides, 3D7 strain of P. falciparum. Conditions: upon addition of PAA. The class given is cell-based, Plasmodium falciparum. The source says: The effect of Phosphono Acetic Acid on the 3D7 Strain of P. falciparum Giemsa-stained slides prepared for the experiment were examined under a microscope and represented in Plate 4. […] It is clear that PAA actually kills the parasite rather than simply inhibiting their growth (FIG. 4).

Test [2] deals with P. berghei. Briefly: Effect on P. berghei infected mice (in vivo model), parasitemia by Giemsa stained blood smears. Also noted: species or system BALB/c mice. The note with it: 50 mg/kg of body weight, once a day for four days. On the procedure:
Effect of Phosphono Acetic Acid on P. berghei Infected Mice (In Vivo Model)
(§1) BALB/c mice (4-6 weeks old) were infected with 10^5 P. berghei parasites/mouse. After four days of infection, when phosphono acetic acid (dissolved in saline and filter sterilized) at a dose of either 25 mg/kg body weight, or 50 mg/kg body weight. The injection of phosphono acetic acid was continued, once a day, for four days. After the fourth day of injection, parasitemea was determined by making Geimsa stained blood smears from the mice.

Test [3] deals with P. berghei. The experiment in a line: Effect of PAA on survival of infected mice. Conditions: dose in the range of about 1 to 50 mg/kg (embodiment). The class given is in vivo, BALB/c mice. Here is the method:
as §1
Effect of PAA on Survival of Infected Mice
The compound of various concentrations was added to the 200 μl of synchronized P. falciparum culture (1% parasitemia). The parasitemia was checked by making Giemsa stained smear after 48 hrs of incubation at 37° C. The compound, PAA was used at the doses of 25 mg/kg and 50 mg/kg body weight. The control group indicates the group of mice infected with the parasite, but with no drug given.

The test system of another test is P. falciparum. Briefly: Effect of drug on P. falciparum in vitro: synchronized culture, Giemsa stained smear after 48 hrs. The class given is cell-based, Plasmodium falciparum. On the procedure: Phosphono acetic acid was dissolved in normal saline and filter sterilized. The compound was added to the parasite culture at different concentrations ranging from 1-400 μm. The compound phosphono acetic acid was tested at the indicated doses using the experimental protocol as described below:
Protocol for Testing the Effect of Drug on P. falciparum for In Vitro Studies
The P. falciparum cultures were synchronized at first by sorbitol treatment. The compound of various concentrations was added to the 200 μl of synchronized P. falciparum culture (1% parasitemia). The parasitemia was checked by making Giemsa stained smear after 48 hrs of incubation at 37° C. The growth of P. falciparum was inhibited in dose-dependent manner, where 1 μM concentration yielded >90% inhibition (Plate 1). The bars represent the percent inhibition, whereas, the blue curve indicates the percentage of parasitemia.
Phosphono formic acid was dissolved in normal saline and filter sterilized. The compound was added to the parasite culture at different concentrations ranging from 1-10 μM. The growth of P. falciparum was inhibited in dose-dependent manner, where 10 μM concentration yielded −70% inhibition (FIG. 2).

In the case of `O=C(O)CP(=O)(O)O` [phosphono acetic acid], the “effect on parasite seen under microscope” value in test [1] is “disintegrated trophozoltes are seen”. Also, the “inhibition of growth of P. berghei” value in the test on P. berghei [2] is −60%. In addition, the enhances the survival result in the test on P. berghei [3] is recorded as “about 60%”. Also, the “inhibition of growth of P. falciparum” value with P. falciparum (1 μM concentration, 48 hrs, 1% parasitemia) is > 90%. Further, the “inhibits growth of P. falciparum” value with P. falciparum (range of about 1 to 5 μM (embodiment)) is given as “about 100%”.
On to `O=C(O)P(=O)(O)O` [phosphono formic acid], for which, in the test on P. falciparum (10 μM concentration), the “inhibition of growth of P. falciparum” value is −70%.
